According to PubChem BioAssay AID2060328 (Molecular Pharmacology Branch, DTP, NCI, 2025):
Values joined by “and” are separate entries in the source; they are usually repeats but may differ in a detail not shown here. Equal values may be shown once.

System: MDA-MB-231 multicell spheroids, viability (%T/C)
Experiment: Anticancer human tumor MDA-MB-231 cell line growth inhibition [IpAb];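 also: viability read after seven days of drug exposure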;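 as to viability, T/C: 100% = DMSO vehicle control viability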
Settings: for viability, T/C: stronger effect = lower value
In short: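 Combinations with ipatasertib or abemaciclib were tested on tumour spheroids holding HUVEC (25%) and MSC (15%) alongside 60% malignant cells. Top concentration was at or near clinical Cmax (10 microM if undefined), descending in half-log steps.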

[1] = curve of first compound, second compound 0.1 µM
[2] = curve of first compound, second compound 0.316 µM
[3] = curve of first compound, second compound 1 µM
[4] = curve of first compound, second compound 3.16 µM
[5] = curve of first compound, second compound 10 µM
[6] = second compound 0.1 µM, first compound 0.00949 µM
[7] = second compound 0.1 µM, first compound 0.03 µM
[8] = second compound 0.1 µM, first compound 0.0949 µM
[9] = second compound 0.1 µM, first compound 0.3 µM
[10] = second compound 0.1 µM, first compound 0.949 µM
[11] = second compound 0.1 µM, first compound 3 µM
[12] = second compound 0.316 µM, first compound 0.00949 µM
[13] = second compound 0.316 µM, first compound 0.03 µM
[14] = second compound 0.316 µM, first compound 0.0949 µM
[15] = second compound 0.316 µM, first compound 0.3 µM
[16] = second compound 0.316 µM, first compound 0.949 µM
[17] = second compound 0.316 µM, first compound 3 µM
[18] = second compound 1 µM, first compound 0.00949 µM
[19] = second compound 1 µM, first compound 0.03 µM
[20] = second compound 1 µM, first compound 0.0949 µM
[21] = second compound 1 µM, first compound 0.3 µM
[22] = second compound 1 µM, first compound 0.949 µM
[23] = second compound 1 µM, first compound 3 µM
[24] = second compound 3.16 µM, first compound 0.00949 µM
[25] = second compound 3.16 µM, first compound 0.03 µM
[26] = second compound 3.16 µM, first compound 0.0949 µM
[27] = second compound 3.16 µM, first compound 0.3 µM
[28] = second compound 3.16 µM, first compound 0.949 µM
[29] = second compound 3.16 µM, first compound 3 µM
[30] = second compound 10 µM, first compound 0.00949 µM
[31] = second compound 10 µM, first compound 0.03 µM
[32] = second compound 10 µM, first compound 0.0949 µM
[33] = second compound 10 µM, first compound 0.3 µM
[34] = second compound 10 µM, first compound 0.949 µM
[35] = second compound 10 µM, first compound 3 µM

Cn1cnc2c(F)c(Nc3ccc(Br)cc3Cl)c(C(=O)NOCCO)cc21 + CC(C)NCC(C(=O)N1CCN(c2ncnc3c2C(C)CC3O)CC1)c1ccc(Cl)cc1 gave an IC50 [1] of under 9.49 nM, an IC50 [2] of under 9.49 nM and an IC50 [3] of under 9.49 nM. It also gave an IC50 [4] of under 9.49 nM, an IC50 [5] of under 9.49 nM and a viability, T/C [6] of 43.2%. The viability, T/C [7] was 36.2%, the viability, T/C [8] was 34.3% and the viability, T/C [9] was 27.8%. The viability, T/C [10] was 23.4%, the viability, T/C [11] was 13% and the viability, T/C [12] was 38%. It also gave a viability, T/C [13] of 31.8%, a viability, T/C [14] of 29.5% and a viability, T/C [15] of 24.1%. The viability, T/C [16] was 20.4%, the viability, T/C [17] was 11.6% and the viability, T/C [18] was 31.2%. It also gave a viability, T/C [19] of 28.2%, a viability, T/C [20] of 24.8% and a viability, T/C [21] of 23%. It also gave a viability, T/C [22] of 17.5%, a viability, T/C [23] of 10.5% and a viability, T/C [24] of 25%. For the same molecule, the viability, T/C [25] was 22.6%, the viability, T/C [26] was 20.6% and the viability, T/C [27] was 18.4%. It also gave a viability, T/C [28] of 14.5%, a viability, T/C [29] of 7.58% and a viability, T/C [30] of 18.9%. For the same molecule, the viability, T/C [31] was 16.9%, the viability, T/C [32] was 13.8% and the viability, T/C [33] was 13.1%. It also gave a viability, T/C [34] of 8.94% and a viability, T/C [35] of 4.82%.

In the case of COc1c(OCCCN2CCOCC2)ccc2c3n(c(=NC(=O)c4cnc(N)nc4)nc12)CCN3, the viability, T/C (compound 0.00316 µM) is reported as 84% and 88.5%, the viability, T/C (compound 0.01 µM) is reported as 70.3% and 69.2% and the viability, T/C (compound 0.0316 µM) is reported as 55.8% and 53.5%. For the same molecule, the viability, T/C (compound 0.1 µM) was 43.3% and 42%, the viability, T/C (compound 0.316 µM) was 34.1% and 33.4% and the viability, T/C (compound 1 µM) was 37.6% and 40.3%. The IC50 (curve of compound) was 50.1 nM and 39.5 nM.

CC(C)(C)c1cnc(CSc2cnc(NC(=O)C3CCNCC3)s2)o1 + CC(C)NCC(C(=O)N1CCN(c2ncnc3c2C(C)CC3O)CC1)c1ccc(Cl)cc1 was tested, and the IC50 [1] was 171 nM, the IC50 [2] was 152 nM and the IC50 [3] was 140 nM. It also gave an IC50 [4] of 109 nM, an IC50 [5] of under 9.49 nM and a viability, T/C [6] of 110%. For the same molecule, the viability, T/C [7] was 115%, the viability, T/C [8] was 101% and the viability, T/C [9] was 1.85%. For the same molecule, the viability, T/C [10] was 1.02%, the viability, T/C [11] was 1.06% and the viability, T/C [12] was 94.5%. It also gave a viability, T/C [13] of 98.8%, a viability, T/C [14] of 83.5% and a viability, T/C [15] of 1.35%. For the same molecule, the viability, T/C [16] was 0.87%, the viability, T/C [17] was 0.98% and the viability, T/C [18] was 79.2%. The viability, T/C [19] was 84.8%, the viability, T/C [20] was 74.4% and the viability, T/C [21] was 2.5%. For the same molecule, the viability, T/C [22] was 0.85%, the viability, T/C [23] was 0.86% and the viability, T/C [24] was 61.1%. For the same molecule, the viability, T/C [25] was 61.7%, the viability, T/C [26] was 56.5% and the viability, T/C [27] was 1.57%. It also gave a viability, T/C [28] of 0.65%, a viability, T/C [29] of 0.78% and a viability, T/C [30] of 42.1%. The viability, T/C [31] was 43.8%, the viability, T/C [32] was 35.1% and the viability, T/C [33] was 0.95%. The viability, T/C [34] was 0.79% and the viability, T/C [35] was 0.8%.

With CC(=O)c1c(C)c2cnc(Nc3ccc(N4CCNCC4)cn3)nc2n(C2CCCC2)c1=O + CCN1CCN(Cc2ccc(Nc3ncc(F)c(-c4cc(F)c5nc(C)n(C(C)C)c5c4)n3)nc2)CC1 the IC50 (curve of first compound, second compound 0.01 µM) was 59.4 nM, the IC50 (curve of first compound, second compound 0.0316 µM) was 44.3 nM and the IC50 [1] was 18.1 nM. For the same molecule, the IC50 [2] was 1.19 nM, the IC50 [3] was over 300 nM and the viability, T/C (second compound 0.01 µM, first compound 0.000949 µM) was 87.9%. For the same molecule, the viability, T/C (second compound 0.01 µM, first compound 0.003 µM) was 82.1%, the viability, T/C (second compound 0.01 µM, first compound 0.00949 µM) was 74.1% and the viability, T/C (second compound 0.01 µM, first compound 0.03 µM) was 55.2%. For the same molecule, the viability, T/C (second compound 0.01 µM, first compound 0.0949 µM) was 46.3%, the viability, T/C (second compound 0.01 µM, first compound 0.3 µM) was 43.1% and the viability, T/C (second compound 0.0316 µM, first compound 0.000949 µM) was 71.8%. It also gave a viability, T/C (second compound 0.0316 µM, first compound 0.003 µM) of 71.5%, a viability, T/C (second compound 0.0316 µM, first compound 0.00949 µM) of 66.8% and a viability, T/C (second compound 0.0316 µM, first compound 0.03 µM) of 52.8%. For the same molecule, the viability, T/C (second compound 0.0316 µM, first compound 0.0949 µM) was 44.4%, the viability, T/C (second compound 0.0316 µM, first compound 0.3 µM) was 40.4% and the viability, T/C (second compound 0.1 µM, first compound 0.000949 µM) was 60%. For the same molecule, the viability, T/C (second compound 0.1 µM, first compound 0.003 µM) was 59.2%, the viability, T/C [6] was 54% and the viability, T/C [7] was 47.1%. The viability, T/C [8] was 41%, the viability, T/C [9] was 41.8% and the viability, T/C (second compound 0.316 µM, first compound 0.000949 µM) was 49.2%. The viability, T/C (second compound 0.316 µM, first compound 0.003 µM) was 50.9%, the viability, T/C [12] was 46.2% and the viability, T/C [13] was 44.7%. For the same molecule, the viability, T/C [14] was 44%, the viability, T/C [15] was 42% and the viability, T/C (second compound 1 µM, first compound 0.000949 µM) was 55.4%. For the same molecule, the viability, T/C (second compound 1 µM, first compound 0.003 µM) was 58.5%, the viability, T/C [18] was 53.8% and the viability, T/C [19] was 53.4%. It also gave a viability, T/C [20] of 52.8% and a viability, T/C [21] of 48.9%.
